The source made the active and inactive calls. The rule behind the calls is not given here.
Tests used:
Assay type in all cases: functional, cell-based
MSC [1] = assay: Induction of differentiation of human umbilical cord tissue-derived MSC to neurons assessed as upregulation of nestin levels at 10 uM after 11 days by End PCR analysis
MSC [2] = assay: Induction of differentiation of human umbilical cord tissue-derived MSC to neurons assessed as upregulation of agrin levels at 10 uM after 11 days by End PCR analysis
MSC [3] = assay: Induction of differentiation of human umbilical cord tissue-derived MSC to neurons assessed as upregulation of RTN4 levels at 10 uM after 11 days by End PCR analysis
MSC [4] = assay: Induction of differentiation of human umbilical cord tissue-derived MSC to neurons assessed as phenotypic changes in cell at 10 uM after 11 days by End PCR analysis

| SMILES | Activity (MSC [1]) | Activity (MSC [2]) | Activity (MSC [3]) | Activity (MSC [4]) |
| --- | --- | --- | --- | --- |
| CO[C@@H](C[C@H](C)CO)[C@H](O)[C@@H](C)C(=O)N1C(=O)OC[C@H]1Cc1ccccc1 | Active | Active | Active | Active |
| CO[C@H]1[C@@H](OC)C[C@H](C)Cn2cc(nn2)COC(=O)/C(C)=C/C=C\[C@H](OC)[C@H](CO[Si](C)(C)C(C)(C)C)OC(=O)[C@@H]1C | Active | Active | Active | – |
| CO[C@@H]([C@H](C[C@H](C)CN=[N+]=[N-])OC)[C@@H](C)C(=O)N1C(=O)OC[C@H]1Cc1ccccc1 | inactive | Active | Active | – |
| CO[C@H]1[C@@H](OC)C[C@H](C)Cn2cc(nn2)COC(=O)/C(C)=C/CC[C@H](OC)[C@H](CO[Si](C)(C)C(C)(C)C)OC(=O)[C@@H]1C | Active | Active | Active | – |
| CO[C@H]1[C@@H](OC)C[C@H](C)Cn2cc(nn2)COC(=O)/C(C)=C/CC[C@H](OC)[C@H](CO)OC(=O)[C@@H]1C | Active | Active | Active | Active |

Source: ChEMBL document CHEMBL4052622, “Geldanamycin-inspired compounds induce direct trans-differentiation of human mesenchymal stem cells to neurons” (Eur J Med Chem, 2017)
